Measurements reported in patent US8178506B2, “Oligomeric compounds and compositions for use in modulation of small non-coding RNAs” (Regulus Therapeutics Inc., priority 2003, dated 2012).
In the oligonucleotide strings, read from the 5' end, every base follows the letter of its sugar. An asterisk marks phosphorothioate; unmarked linkages are phosphodiester. Other units and linkages are bracketed, terminal groups are in braces. A string of capitals states the bases alone. e = 2'-O-(2-methoxyethyl) (MOE); [5mC] = 5-methylcytosine; d = 2'-deoxy (DNA)

Key:
[1] = system: mir-15a pri-miRNA; test: mir-15a pri-miRNA expression in HepG2 cells (real-time RT-PCR); format: cell-based, human; conditions: for expression of the mir-15a pri-miRNA molecule: HepG2, 100 nM
Protocol: Using the real-time RT-PCR methods described in Example 19, the expression levels of the mir-15a pri-miRNA were compared in HepG2 cells treated with a nested series of chimeric gapmer oligomeric compounds, targeting and spanning the entire length of the mir-15a pri-miRNA; these compounds are shown in Table 45, below. […] All cytidine residues are 5-methylcytidines. Using the transfection methods described herein, HepG2 cells were treated with 100 nM of each of these gapmer oligomeric compounds. Total RNA was isolated from HepG2 cells by lysing cells in 1 mL TRIZOL™ (Invitrogen) using the manufacturer's recommended protocols. Real-time RT-PCR analysis was performed using a primer/probe set specific for the mir-15a pri-miRNA molecule to assess the effects of these compounds on expression of the mir-15a pri-miRNA molecule. ISIS 339317 ([…]; SEQ ID NO.: 885) was used as the forward primer, ISIS 339318 (TGGCCTGCACCTTTTCAAA; SEQ ID NO.: 886) was used as the reverse primer, and ISIS 339319 ([…]; SEQ ID NO.: 887) was used as the probe. Total RNA was quantified using RiboGreen™ RNA quantification reagent (Molecular Probes, Inc. Eugene, Oreg.), expression levels observed for each target are normalized to 5.8S rRNA, and values are expressed relative to the untreated control. Inhibition of expression of the mir15a pri-miRNA by these gapmer oligomeric compounds is expressed as a percentage of RNA levels in untreated control cells.

[2] = system: HeLa cells; test: Cell cycle assay in HeLa cells; format: cell-based, human
[3] = system: T47Dp53 cells; test: Cell cycle assay in T47Dp53 cells; format: cell-based, human; conditions: 150 nM, 48 hours; for % cells in cell cycle phase G1 / % cells in cell cycle phase G2/M / % cells in cell cycle phase S / % cells in cell cycle phase aneuploid / % cells in cell cycle phase subG1: relative to untreated control
Protocol: (§1) In further studies, additional cell lines were treated with oligomeric compounds targeted against miRNAs to assess the effects of each oligomeric compound on cell cycling. BJ, B16, T47D, and HeLa cells were cultured and transfected as described above. […] T47Dp53 cells are T47D cells that have been transfected with and selected for maintenance of a plasmid that expresses a wildtype copy of the p53 gene (for example, pCMV-p53; Clontech, Palo Alto, Calif.), using standard laboratory procedures. BJ cells were treated with 200 nM of each oligomeric compound, and T47D, T47Dp53, HeLa, and B16 cells were treated with 150 nM of each oligomeric compound. The human foreskin fibroblast BJ cell line represents a non-cancer cell line, while HeLa, T47D, T47Dp53 cells and the mouse melanoma cell line B16-F10 represent cancerous cell lines. For comparison, oligomeric compounds ISIS 183891 (SEQ ID NO: 847) and ISIS 285717 ([…]; herein incorporated as SEQ ID NO: 857), both targeting the kinesin-like 1/Eg5 mRNA, involved in cell cycling, were used as positive controls. The random-mer ISIS 29848 was used as a negative control. Additionally, the oligomeric compounds ISIS Number 25690 ([…]; herein incorporated as SEQ ID NO: 858) and ISIS Number 25691 ([…]; herein incorporated as SEQ ID NO: 859), targeted to nucleotides 3051-3070 and 3085-3104, respectively, of the mRNA encoding the Drosha RNase III (GenBank Accession NM_013235.2, incorporated herein as SEQ ID NO: 860) were also tested. ISIS Number 25690 and ISIS Number 25691 are 5-10-52′-MOE gapmer compounds, 20 nucleotides in length, with phosphorothioate internucleoside linkages throughout the oligomeric compound. All cytidine residues are 5-methylcytidines. Transfections were performed using the methods described herein. Cells were prepared for flow cytometry 48-hours after oligonucleotide treatment. Results of these studies are shown in Table 35, where data are expressed as percentage of cells in each phase relative to the untreated control cells in that phase.

[4] = system: T47D cells; test: Cell cycle assay in T47D cells; format: cell-based, human; conditions: 150 nM, 48 hours, relative to untreated control
Protocol: (§2) BJ cells were routinely cultured in MEM high glucose with 2 mM L-glutamine and Earle's BSS adjusted to contain 1.5 g/L sodium bicarbonate and supplemented with 10% fetal bovine serum, 0.1 mM non-essential amino acids and 1.0 mM sodium pyruvate (all media and supplements from Invitrogen Life Technologies, Carlsbad, Calif.). B16-F10 cells were routinely cultured in DMEM high glucose (Invitrogen Life Technologies, Carlsbad, Calif.) supplemented with 10% fetal bovine serum (Invitrogen Life Technologies, Carlsbad, Calif.). T47D cells were cultured in DMEM High glucose media (Invitrogen Life Technologies, Carlsbad, Calif.) supplemented with 10% fetal bovine serum. […] Cells were plated on collagen-coated 24-well plates (Falcon-Primaria #3047, BD Biosciences, Bedford, Mass.) at approximately 50,000 cells per well and allowed to attach to wells overnight.
as §1

[5] = system: BJ cells; test: Cell cycle assay in BJ cells; format: cell-based, human; conditions: 200 nM, 48 hours; for % cells in cell cycle phase G1 / % cells in cell cycle phase G2/M / % cells in cell cycle phase S / % cells in cell cycle phase aneuploid / % cells in cell cycle phase subG1: relative to untreated control
Protocol: as §2, §1

[6] = system: B16-F10 cells; test: Cell cycle assay in B16-F10 cells; format: cell-based, mouse; conditions: 150 nM, 48 hours, relative to untreated control
Protocol: as §2, §1

[7] = HeLa cells, 150 nM, 48 hours, relative to untreated control
[8] = HeLa cells, 150 nM oligomeric compound, 24 hours, relative to untreated control (UTC = 100)
[9] = HeLa cells, 150 nM oligomeric compound, 48 hours after treatment, relative to untreated control (UTC=100)

Substance | expression of the mir-15a pri-miRNA molecule [1] | % cells in cell cycle phase G1 [2, 7] [%] | % cells in cell cycle phase G2/M [2, 7] [%] | % cells in cell cycle phase S [2, 7] [%] | % cells in cell cycle phase aneuploid [2, 7] [%] | % cells in cell cycle phase subG1 [2, 7] [%] | % cells in cell cycle phase G1 [3] [%] | % cells in cell cycle phase G2/M [3] [%] | % cells in cell cycle phase S [3] [%] | % cells in cell cycle phase aneuploid [3] [%] | % cells in cell cycle phase subG1 [3] [%] | % cells in cell cycle phase G1 [4] [%] | % cells in cell cycle phase G2/M [4] [%] | % cells in cell cycle phase S [4] [%] | % cells in cell cycle phase aneuploid [4] [%] | % cells in cell cycle phase subG1 [4] [%] | % cells in cell cycle phase G1 [5] [%] | % cells in cell cycle phase G2/M [5] [%] | % cells in cell cycle phase S [5] [%] | % cells in cell cycle phase aneuploid [5] [%] | other results
ISIS 347967: 5-10-5 2′-MOE gapmer PS; targets mir-15a pri-miRNA (antisense eG*e[5mC]*eA*e[5mC]*e[5mC]*dT*dT*dT*dT*d[5mC]*dA*dA*dA*dA*dT*e[5mC]*e[5mC]*eA*e[5mC]*eA) | stimulate an increase in expression levels of the mir-15a pri-miRNA | – | – | – | – | – | – | – | – | – | – | – | – | – | – | – | – | – | – | – | –
25691 (antisense eG*e[5mC]*e[5mC]*eA*eA*dG*dG*d[5mC]*dG*dT*dG*dA*d[5mC]*dA*dT*eG*eA*eT*eA*eT) [compound 25691] | – | 53 | 113 | 141 | 203 | 881 | 130 | 93 | 66 | 95 | 212 | 94 | 104 | 104 | 203 | 125 | 94 | 125 | 116 | 209 | % cells in cell cycle phase subG1 [5]: 183%; % cells in cell cycle phase G1 [6]: 116%; % cells in cell cycle phase G2/M [6]: 99%; % cells in cell cycle phase S [6]: 83%; % cells in cell cycle phase aneuploid [6]: 105%; % cells in cell cycle phase subG1 [6]: 316%
347972 (eA*eG*e[5mC]*eA*e[5mC]*dA*dA*dT*dA*dT*dG*dG*d[5mC]*d[5mC]*dT*eG*e[5mC]*eA*e[5mC]*e[5mC]; antisense) [compound 347972] | – | – | – | – | – | – | – | – | – | – | – | – | – | – | – | – | – | – | – | – | Expression of mir-15a pri-miRNA (% UTC) ([1]; HepG2 cells, 100 nM, real-time RT-PCR): 98.6 % UTC
ISIS 347975: 5-10-5 2′-MOE gapmer PS; targets mir-15a pri-miRNA (antisense eT*eT*eT*eT*eG*dA*dG*dG*d[5mC]*dA*dG*d[5mC]*dA*d[5mC]*dA*eA*eT*eA*eT*eG) | significant inhibition of expression of the mir-15a pri-miRNA molecule | – | – | – | – | – | – | – | – | – | – | – | – | – | – | – | – | – | – | – | –
328744 (antisense e[5mC]*eG*eG*eA*eT*d[5mC]*d[5mC]*dT*dG*dT*dT*dA*d[5mC]*d[5mC]*dT*e[5mC]*eA*e[5mC]*e[5mC]*eA) [compound 328744] | – | 53 | 213 | 110 | 178 | 1057 | 130 | 101 | 59 | 100 | 90 | 90 | 118 | 87 | 191 | 85 | 94 | 127 | 111 | 158 | % cells aneuploid [2, 8]: 111%; % cells in cell cycle phase G1 [2, 8]: 31%; % cells in cell cycle phase G2/M [2, 8]: 167%; % cells in cell cycle phase S [2, 8]: 108%; % cells in cell cycle phase subG1 [2, 8]: 229%; % cells in cell cycle phase: G1 [2, 9]: 31%; % cells in cell cycle phase: G2/M [2, 9]: 334%; % cells in cell cycle phase: S [2, 9]: 78%; % cells in cell cycle phase: aneuploid [2, 9]: 171%; % cells in cell cycle phase: subG1 [2, 9]: 1774%; % cells in cell cycle phase subG1 [5]: 125%; % cells in cell cycle phase G1 [6]: 108%; % cells in cell cycle phase G2/M [6]: 110%; % cells in cell cycle phase S [6]: 87%; % cells in cell cycle phase aneuploid [6]: 115%; % cells in cell cycle phase subG1 [6]: 153%
ISIS 328744: SEQ ID NO: 653, targeting mir-182 (e[5mC]*eG*eG*eA*eT*d[5mC]*d[5mC]*dT*dG*dT*dT*dA*d[5mC]*d[5mC]*dT*e[5mC]*eA*e[5mC]*e[5mC]*eA) | – | – | – | – | – | – | – | – | – | – | – | – | – | – | – | – | – | – | – | – | phase of the cell cycle in which cells arrest or delay ([2]; HeLa, 150 nM, 48 hours): increase in the percentage of cells in the G2/M-phase of the cell cycle as well as in the subG1 category; effect on cell cycling [3]: not affected; effect on cell cycling [5]: not affected
